Entries after “also recorded” stand apart in the source; their conditions may differ.
Experiments:
[1] = format: binding; conditions: read-out: Kd (Me4CB[8]•guest)
[2] = system: PCP-induced hyperlocomotion; assay: In vivo reversal of PCP-induced hyperlocomotion (open field, locomotion counts); parameters: species or system mice; conditions: listed as PCP

Row | SMILES | Kd [1] | locomotion counts, PCP alone ([2]; experiment 1, male Swiss Webster mice n=8, PCP 2 mg/kg, 0.2 mL infusion, vs saline, Me4CB[8] alone, premix) | locomotion counts, PCP alone ([2]; experiment 2, male Swiss Webster mice n=9, PCP 1.95 mg/kg, vs saline and sequential infusions)
1 | CNC1(c2ccccc2Cl)CCCCC1=O (stereo not shown) [Ketamine 7, Ketamine] | 36 nM | – | –
2 | c1ccc(C2(N3CCCCC3)CCCCC2)cc1 [PCP 8, Phencyclidine] | 2 nM | increased locomotion significantly; also recorded: significant increase in locomotion counts | significantly increased locomotion counts; also recorded: significant increase in locomotion counts

From patent publication US20210379099A1 (priority 2020, published 2021)
